Data published in publication PMC3397457, “Preclinical Evaluation of Anticancer Efficacy and Pharmacological Properties of FBA-TPQ, a Novel Synthetic Makaluvamine Analog” (Marine Drugs, 2012).

Experiments:
[1] = tested on: Mia PaCa-2 cells; experiment: MTT cell survival assay, Mia PaCa-2; format: cell-based; conditions: Homo sapiens, Mia PaCa-2, 72 h, read-out: Cytotoxicity IC50
Description: (§1) We evaluated the effects of FBA-TPQ on the survival of several human pancreatic cancer cell lines, including HPAC (p53^+/+), Panc-1(p53^+/−), and Mia PaCa-2(p53^+/−), as well as normal IRM90 fetal fibroblast cells (Figure 2a). Cells were exposed to various concentrations of the test compound (0–10 µM) for 72 h, and cell survival rates were determined by the MTT assay, using a procedure reported previously. FBA-TPQ exerted potent effects against the test cancer cell lines, leading to significant decreases in cell viability.
Human pancreatic cancer cells were obtained from the American Type Culture Collection (Rockville, MD). All cell culture media contained 10% FBS and 1% penicillin/streptomycin. […]
The effect of the test compound on human pancreatic cancer cell viability, expressed as the percentage of cell survival, was determined using the MTT (3-(4,5-dimethylthiazol-2-yl)-2,5-diphenyl tetrazolium bromide) assay. […] The absorbance at 570 nm was recorded using an OPTImax microplate reader (Molecular Devices; Sunnyvale, CA, USA). The cell survival percentages were calculated by dividing the mean OD of compound-containing wells by that of DMSO-containing control wells. […]

[2] = tested on: human pancreatic cancer cell lines (HPAC, Panc-1, Mia PaCa-2); experiment: MTT cell survival assay, pancreatic cancer cell lines taken together; format: cell-based; conditions: 72 h
Description: as §1
The effect of the test compound on human pancreatic cancer cell viability, expressed as the percentage of cell survival, was determined using the MTT (3-(4,5-dimethylthiazol-2-yl)-2,5-diphenyl tetrazolium bromide) assay. The MTT assay is colorimetric assay for measuring the activity of enzymes that reduce MTT to formazan dyes, giving a purple color. Cells were grown in 96-well plates at 4–5 × 10^3 cells per well and exposed to different concentrations of the test compound (0, 0.1, 0.25, 0.5, 0.75, 1, 5 and 10 µM). […] The absorbance at 570 nm was recorded using an OPTImax microplate reader (Molecular Devices; Sunnyvale, CA, USA). The cell survival percentages were calculated by dividing the mean OD of compound-containing wells by that of DMSO-containing control wells. […]

[3] = tested on: HPAC cells; experiment: Cell cycle distribution by flow cytometry, HPAC; format: cell-based, human; conditions: 1 µM
Description: The effects of FBA-TPQ on cell cycle distribution were analyzed using the previously reported methods; its effects appeared to be cell-line-dependent (Figure 2c). […] The differences in the responses of the different cell lines may be related to their expression of p53.
To determine the effect of FBA-TPQ on the cell cycle, cells (2–3 × 10^5) were exposed to the test compounds (0, 0.1, 0.5 or 1 µM) and incubated for 24 h prior to analysis. Cells were trypsinized, washed with PBS, and fixed in 1.5 mL of 95% ethanol and 0.5 mL of 0.9% saline solution at 4 °C overnight, followed by incubation with RNAse and staining with propidium iodide (Sigma). The DNA content was determined by flow cytometry. The cell cycle distribution was evaluated by comparing with that of the control cells.

[4] = tested on: Panc-1 xenograft tumors; experiment: Panc-1 xenograft model in nude mice; format: in vivo; conditions: for inhibition of tumor growth: 5 days/week, vs control group
Description: Since it exerted potent effects in vitro, we determined whether FBA-TPQ could also show anti-tumor effects in vivo. Nude mice bearing Panc-1 xenograft tumors were treated with vehicle or FBA-TPQ at 5 or 10 mg/kg/day, 5 days per week.
Figure 3 In vivo effects of FBA-TPQ administered to nude mice bearing Panc-1 xenograft tumors. (a) FBA-TPQ was administered by intraperitoneal (ip) injection at doses of 5 mg/kg/day, 5 days/week for 3 weeks and 10 mg/kg/day, 5 days/week for 2 weeks, tumors were measured […]; (b) At the end of the experiment, representative tumors were removed and photographed; (c) Animals were also monitored for changes in body weight as a surrogate marker for toxicity.
The animal use and care protocol was approved by the Institutional Animal Use and Care Committee of Texas Tech University Health Sciences Center. Female athymic pathogen-free nude mice (nu/nu, 4–6 weeks) were purchased from the Charles River Laboratories International. Inc. (Wilmington, MA, USA). To establish Panc-1 human pancreatic cancer xenograft tumors, cultured Panc-1 cells were harvested from monolayer cultures, washed twice with serum-free medium, re-suspended and injected sc (5 × 10^6 cells, total volume 0.2 mL) into the left inguinal area of the mice. All animals were monitored for activity, physical condition, body weight, and tumor growth. Tumor size was determined every other day by caliper measurement of two perpendicular diameters of the implant. Tumor mass (in g) was calculated by the formula, 1/2a × b^2 where “a” is the long diameter and “b” is the short diameter (in cm).
The animals bearing human cancer xenografts were randomly divided into various treatment groups and a control group (7–10 mice/group). The untreated control group received the vehicle only. For the Panc-1 xenograft model, FBA-TPQ was dissolved in PEG400: ethanol: saline (57.1: 14.3: 28.6, v/v/v),and was administered by intraperitoneal (ip) injection at doses of 5 and 10 mg/kg/d, 5 d/wk for 3 weeks.

[5] = Plasma protein binding by micro-ultrafiltration; format: in vitro ADME; conditions: pooled mouse plasma, 37 °C 1 h, read-out: bound to plasma proteins (converted)
Description: To determine the extent to which FBA-TPQ is bound by plasma proteins, pooled plasma samples were examined for their capacity to bind the compound at concentrations of 0.5 μM and 5 μM. FBA-TPQ was considerably bound to proteins in mouse plasma, with 72.32% ± 2.53%; and 77.78% ± 1.17% of the compound being bound to plasma proteins at concentrations of 0.5 μM and 5.0 μM, respectively. Extensive binding of a candidate compound to plasma proteins can impair its biodistribution and may therefore impact its therapeutic efficacy. However, compounds that are highly bound to proteins display longer half-lives, durations of action, and higher volumes of distribution.
The extent of binding to mouse plasma proteins by FBA-TPQ was determined using a micro-ultrafiltration system as previously described. FBA-TPQ was dissolved in methanol and added to pooled mouse plasma to yield final concentrations of 0.5 µM and 5.0 µM. Control solutions were prepared in methanol to account for non-specific binding of FBA-TPQ to the filter membranes. Duplicate preparations of each concentration were incubated at 37 °C for 1 h, before being placed into the sample reservoirs of Amicon Centrifree® ultrafiltration tubes (30 kDa exclusion; Millipore).

O=C1C(NCc2ccc(F)cc2)=CC2=NCCc3c[nH]c1c32 [FBA-TPQ, 7-(4-fluorobenzylamino)-1,3,4,8-tetrahydropyrrolo[4,3,2-de]quinolin-8(1H)-one]
IC50 [1]: 320 ± 10 nM
differences in IC50, normal IMR90 fibroblasts vs pancreatic cancer cells [2]: 10–50 fold
cell cycle arrest [3]: arrest in the G2/M phase
inhibition of tumor growth ([4]; 5 mg/kg/day ip): 77.8%
inhibition of tumor growth ([4]; 10 mg/kg/day ip): 90.1%
host toxicity (body weight as surrogate marker) ([4]; 5 and 10 mg/kg/day ip): No significant host toxicity
tumor regression/remission ([4]; both treated groups (5 and 10 mg/kg/day ip)): significant tumor regression or complete remission
fraction unbound at 1 h, 0.5 µM ([5]; 0.5 μM): 0.277
fraction unbound at 1 h, 5 µM ([5]; 5.0 μM): 0.222
